Experimental findings from article PMC5862592, “CDK8/19 inhibition induces premature G1/S transition and ATR-dependent cell death in prostate cancer cells” (Oncotarget, 2018) are described below.

Assay in all cases: biochemical
Holding throughout (parameters): KINOMEscan active site-directed competition binding assay (DiscoveRx), 456 kinases, per cent of control at 300 nM
Holding throughout (conditions): read-out: Percent of Control (%)

One assay concerns the target MERTK (Homo sapiens, UniProt Q12866). The gist of the method:
(§1)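 Binding was measured with an active site-directed competition binding assay that quantifies compound–kinase interactions. Test compounds were screened at 300 nmol/L across a 456-kinase panel.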

The target in a further assay is AXL (Homo sapiens, UniProt P30530). The gist of the method:
as §1

Another assay deals with LIMK1 (Homo sapiens, UniProt P53667). The gist of the method: as §1
For a further assay, the target named is TNNI3K (Homo sapiens, UniProt Q59H18). The gist of the method: as §1
The target in a further assay is PIP5K1A (Homo sapiens, UniProt Q99755). The gist of the method:
as §1

In the next assay the target is ALK (Homo sapiens, UniProt Q9UM73). The gist of the method:
as §1

Another assay addresses MYO3A (Homo sapiens, UniProt Q8NEV4). The gist of the method: as §1
In a further assay the target is RIPK1 (Homo sapiens, UniProt Q13546). The gist of the method:
as §1

The target of a further assay is LYN (Homo sapiens, UniProt P07948). The gist of the method:
as §1

In the next assay the target is T1, ERK8 (Homo sapiens, UniProt Q8TD08).
T1 construct: gene MAPK15
The gist of the method: as §1

In another assay the target is CDK3 (Homo sapiens, UniProt Q00526). The gist of the method: as §1
In a further assay the target is T2, AMPK-alpha1 (Homo sapiens, UniProt Q13131).
T2 construct: gene PRKAA1
The gist of the method: as §1

Another assay addresses RIOK2 (Homo sapiens, UniProt Q9BVS4). The gist of the method:
as §1

In a further assay the target is GRK7 (Homo sapiens, UniProt Q8WTQ7). The gist of the method:
as §1

For another assay, the target named is MYO3B (Homo sapiens, UniProt Q8WXR4). The gist of the method: as §1
The target of the next assay is EGFR(S752-I759del) (Homo sapiens, UniProt P00533, DEL752-759). The gist of the method: as §1
Another assay deals with AURKB (Homo sapiens, UniProt Q96GD4). The gist of the method: as §1
The next assay has as its target T3, MST2 (Homo sapiens, UniProt Q13188).
T3 construct: gene STK3
The gist of the method: as §1

The target of the next assay is WNK3 (Homo sapiens, UniProt Q9BYP7). The gist of the method:
as §1

In the next assay the target is BLK (Homo sapiens, UniProt P51451). The gist of the method: as §1
The next assay addresses T4, MEK4 (Homo sapiens, UniProt P45985).
T4 construct: gene MAP2K4
The gist of the method: as §1

The next assay has as its target T5, JNK3 (Homo sapiens, UniProt P53779).
T5 construct: gene MAPK10
The gist of the method:
as §1

Read-outs that look alike come from different tables or passages of the source.

Chain of MERTK (Q12866 whole entry): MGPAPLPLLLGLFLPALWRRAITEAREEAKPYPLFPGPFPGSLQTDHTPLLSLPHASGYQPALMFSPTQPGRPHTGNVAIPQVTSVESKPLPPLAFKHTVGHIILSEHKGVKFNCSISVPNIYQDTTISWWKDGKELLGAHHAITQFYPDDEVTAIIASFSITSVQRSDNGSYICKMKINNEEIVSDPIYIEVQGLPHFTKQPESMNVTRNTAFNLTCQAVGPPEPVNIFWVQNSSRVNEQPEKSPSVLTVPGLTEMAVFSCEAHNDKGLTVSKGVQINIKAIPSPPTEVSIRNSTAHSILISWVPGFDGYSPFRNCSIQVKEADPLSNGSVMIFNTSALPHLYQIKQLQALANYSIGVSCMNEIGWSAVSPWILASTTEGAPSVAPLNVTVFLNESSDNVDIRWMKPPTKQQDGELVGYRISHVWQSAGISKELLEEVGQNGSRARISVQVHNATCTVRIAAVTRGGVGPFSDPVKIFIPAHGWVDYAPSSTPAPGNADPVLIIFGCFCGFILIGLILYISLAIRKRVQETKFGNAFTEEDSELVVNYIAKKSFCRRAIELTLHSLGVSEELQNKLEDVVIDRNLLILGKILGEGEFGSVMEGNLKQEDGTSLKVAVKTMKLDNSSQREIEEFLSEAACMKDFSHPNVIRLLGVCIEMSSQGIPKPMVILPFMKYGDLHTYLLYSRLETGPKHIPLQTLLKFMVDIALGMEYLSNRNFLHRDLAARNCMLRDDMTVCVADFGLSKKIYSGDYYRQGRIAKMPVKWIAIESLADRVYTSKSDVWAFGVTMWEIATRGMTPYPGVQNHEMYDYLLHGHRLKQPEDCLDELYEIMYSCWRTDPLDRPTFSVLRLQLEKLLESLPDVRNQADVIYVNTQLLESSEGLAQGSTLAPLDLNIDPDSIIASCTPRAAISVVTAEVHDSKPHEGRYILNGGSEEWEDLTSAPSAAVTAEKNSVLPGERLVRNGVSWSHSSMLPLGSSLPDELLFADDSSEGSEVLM
Chain of AXL (P30530 whole entry): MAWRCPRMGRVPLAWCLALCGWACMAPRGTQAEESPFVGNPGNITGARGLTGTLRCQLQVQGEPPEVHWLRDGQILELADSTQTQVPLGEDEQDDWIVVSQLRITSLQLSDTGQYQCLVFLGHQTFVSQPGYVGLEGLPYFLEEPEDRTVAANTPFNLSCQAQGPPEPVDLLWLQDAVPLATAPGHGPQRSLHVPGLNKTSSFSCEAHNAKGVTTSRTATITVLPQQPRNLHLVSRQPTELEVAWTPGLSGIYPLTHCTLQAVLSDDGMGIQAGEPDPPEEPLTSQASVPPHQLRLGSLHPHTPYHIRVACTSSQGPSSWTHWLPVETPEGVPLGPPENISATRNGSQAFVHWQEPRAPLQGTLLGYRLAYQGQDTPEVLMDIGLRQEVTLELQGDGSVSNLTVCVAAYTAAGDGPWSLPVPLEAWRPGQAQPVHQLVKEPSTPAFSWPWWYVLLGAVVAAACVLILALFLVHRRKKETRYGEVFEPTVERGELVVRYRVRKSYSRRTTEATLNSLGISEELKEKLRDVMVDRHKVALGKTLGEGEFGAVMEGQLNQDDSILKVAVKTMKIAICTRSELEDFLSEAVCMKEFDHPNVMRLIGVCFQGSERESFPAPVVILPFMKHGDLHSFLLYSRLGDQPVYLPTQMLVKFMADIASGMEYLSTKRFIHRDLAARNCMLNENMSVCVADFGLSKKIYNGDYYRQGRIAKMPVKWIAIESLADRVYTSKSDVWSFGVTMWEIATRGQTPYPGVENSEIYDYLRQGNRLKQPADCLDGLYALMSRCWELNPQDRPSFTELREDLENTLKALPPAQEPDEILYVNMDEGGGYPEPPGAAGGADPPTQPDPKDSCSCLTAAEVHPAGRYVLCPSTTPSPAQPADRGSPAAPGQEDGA
Chain of CDK3 (Q00526 whole entry): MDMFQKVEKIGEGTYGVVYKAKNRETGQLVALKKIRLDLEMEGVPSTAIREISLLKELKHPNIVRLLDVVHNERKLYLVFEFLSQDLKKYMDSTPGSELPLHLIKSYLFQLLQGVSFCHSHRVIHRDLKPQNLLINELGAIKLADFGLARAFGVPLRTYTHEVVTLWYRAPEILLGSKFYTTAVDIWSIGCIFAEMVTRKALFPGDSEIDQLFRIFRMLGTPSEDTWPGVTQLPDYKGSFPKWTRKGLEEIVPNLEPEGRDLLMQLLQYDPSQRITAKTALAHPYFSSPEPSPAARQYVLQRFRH
Chain of MYO3B (Q8WXR4 whole entry): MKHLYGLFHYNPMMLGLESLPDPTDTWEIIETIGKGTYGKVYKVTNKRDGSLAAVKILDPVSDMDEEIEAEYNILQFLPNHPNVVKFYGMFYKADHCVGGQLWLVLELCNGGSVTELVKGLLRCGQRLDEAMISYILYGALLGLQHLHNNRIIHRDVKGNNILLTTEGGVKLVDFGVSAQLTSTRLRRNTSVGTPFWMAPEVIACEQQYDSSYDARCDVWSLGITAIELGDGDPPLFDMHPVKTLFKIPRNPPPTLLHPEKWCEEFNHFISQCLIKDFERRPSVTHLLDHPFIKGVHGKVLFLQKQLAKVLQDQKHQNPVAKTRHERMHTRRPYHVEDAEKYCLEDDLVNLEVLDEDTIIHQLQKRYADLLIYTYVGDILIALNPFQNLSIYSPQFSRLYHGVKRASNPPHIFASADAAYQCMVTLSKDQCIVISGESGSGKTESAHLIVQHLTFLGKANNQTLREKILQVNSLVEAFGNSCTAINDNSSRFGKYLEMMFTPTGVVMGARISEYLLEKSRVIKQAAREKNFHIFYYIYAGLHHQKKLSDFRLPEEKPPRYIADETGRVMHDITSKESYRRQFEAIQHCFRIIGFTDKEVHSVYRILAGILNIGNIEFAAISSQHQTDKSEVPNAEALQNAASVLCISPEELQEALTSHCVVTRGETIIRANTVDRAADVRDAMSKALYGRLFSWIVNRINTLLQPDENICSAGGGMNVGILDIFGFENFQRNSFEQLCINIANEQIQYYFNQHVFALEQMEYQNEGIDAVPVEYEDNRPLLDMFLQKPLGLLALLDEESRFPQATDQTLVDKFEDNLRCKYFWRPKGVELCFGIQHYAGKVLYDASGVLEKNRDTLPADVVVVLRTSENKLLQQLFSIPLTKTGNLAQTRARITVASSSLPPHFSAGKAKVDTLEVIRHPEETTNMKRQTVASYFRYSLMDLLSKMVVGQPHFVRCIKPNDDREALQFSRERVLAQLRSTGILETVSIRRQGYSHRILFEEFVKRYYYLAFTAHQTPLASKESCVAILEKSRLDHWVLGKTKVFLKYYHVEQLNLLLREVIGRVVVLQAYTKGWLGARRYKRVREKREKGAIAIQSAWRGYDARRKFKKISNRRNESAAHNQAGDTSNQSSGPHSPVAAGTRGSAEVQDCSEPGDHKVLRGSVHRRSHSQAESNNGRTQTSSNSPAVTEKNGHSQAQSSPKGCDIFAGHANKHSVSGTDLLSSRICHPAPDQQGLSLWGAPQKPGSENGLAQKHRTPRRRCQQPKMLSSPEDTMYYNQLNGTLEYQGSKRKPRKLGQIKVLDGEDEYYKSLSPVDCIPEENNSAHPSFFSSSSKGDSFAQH
T1 sequence (Q8TD08 whole entry): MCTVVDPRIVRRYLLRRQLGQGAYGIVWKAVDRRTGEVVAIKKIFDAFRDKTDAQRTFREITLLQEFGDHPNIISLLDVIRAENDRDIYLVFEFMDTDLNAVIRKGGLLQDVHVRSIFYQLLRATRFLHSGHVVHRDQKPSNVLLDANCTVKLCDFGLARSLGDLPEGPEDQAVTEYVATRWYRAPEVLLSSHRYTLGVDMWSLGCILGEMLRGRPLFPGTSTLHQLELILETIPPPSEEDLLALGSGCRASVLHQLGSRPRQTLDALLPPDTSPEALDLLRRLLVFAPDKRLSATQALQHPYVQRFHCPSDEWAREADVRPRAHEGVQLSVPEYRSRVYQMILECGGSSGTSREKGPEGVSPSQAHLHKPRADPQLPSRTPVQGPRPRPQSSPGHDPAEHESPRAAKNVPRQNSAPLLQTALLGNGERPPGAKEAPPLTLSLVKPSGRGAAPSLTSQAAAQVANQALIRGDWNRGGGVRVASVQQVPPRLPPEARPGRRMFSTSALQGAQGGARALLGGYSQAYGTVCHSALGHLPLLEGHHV
T3 sequence (Q13188 whole entry): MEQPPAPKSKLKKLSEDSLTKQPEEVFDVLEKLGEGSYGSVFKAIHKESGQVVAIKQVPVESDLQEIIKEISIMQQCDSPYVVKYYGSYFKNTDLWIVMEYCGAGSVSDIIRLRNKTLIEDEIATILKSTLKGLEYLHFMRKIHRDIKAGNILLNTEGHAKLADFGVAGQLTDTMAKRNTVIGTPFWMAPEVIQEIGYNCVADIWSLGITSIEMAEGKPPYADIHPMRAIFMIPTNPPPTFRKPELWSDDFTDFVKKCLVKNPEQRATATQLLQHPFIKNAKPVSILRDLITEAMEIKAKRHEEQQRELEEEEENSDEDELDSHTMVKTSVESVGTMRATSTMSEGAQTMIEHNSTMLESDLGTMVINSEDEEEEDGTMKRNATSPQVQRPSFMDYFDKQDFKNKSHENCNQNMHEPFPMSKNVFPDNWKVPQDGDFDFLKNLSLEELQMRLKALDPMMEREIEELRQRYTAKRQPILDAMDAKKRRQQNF
Chain of AURKB (Q96GD4 whole entry): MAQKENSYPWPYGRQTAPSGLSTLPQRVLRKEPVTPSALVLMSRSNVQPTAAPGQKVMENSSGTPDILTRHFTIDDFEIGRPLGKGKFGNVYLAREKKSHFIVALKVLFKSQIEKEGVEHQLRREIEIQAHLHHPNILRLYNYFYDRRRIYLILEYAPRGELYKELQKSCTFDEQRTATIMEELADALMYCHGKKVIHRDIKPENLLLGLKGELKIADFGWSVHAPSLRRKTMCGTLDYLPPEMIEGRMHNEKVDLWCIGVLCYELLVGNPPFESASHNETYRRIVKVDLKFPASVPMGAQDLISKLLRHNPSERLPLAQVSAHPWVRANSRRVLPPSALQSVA

For the molecule `O=C(/C=C/c1cnccc1-c1ccc(F)cc1)Nc1ccc(CCc2nnco2)cc1` [T-418, (2E)-3-(4-(4-fluorophenyl)pyridin-3-yl)-N-(4-(2-(1,3,4-oxadiazol-2-yl)ethyl)phenyl)acrylamide], the remaining binding at 0.3 µM on MERTK (sheet T-418) was 100%; at AXL (sheet T-418), 73%; at LIMK1 (sheet T-418), 100%; at TNNI3K (sheet T-418) it was 100%; on PIP5K1A (sheet T-418) it was 94%; at ALK (sheet T-418), 81%. The remaining binding at 0.3 µM at MYO3A (sheet T-418) turned out to be 100%; at RIPK1 (sheet T-418), 83%; on LYN (sheet T-418), 100%; at ERK8 (sheet T-418), 94%; at CDK3 (sheet T-418) it was 95%; at AMPK-alpha1 (sheet T-418) it was 100%. Moreover, the remaining binding at 0.3 µM at RIOK2 (sheet T-418) worked out at 99%; on GRK7 (sheet T-418), 80%; at MYO3B (sheet T-418), 52%; on EGFR(S752-I759del) (sheet T-418), 98%; on AURKB (sheet T-418) it was 100%; at MST2 (sheet T-418), 46%. Also, the remaining binding at 0.3 µM was 100% at WNK3 (sheet T-418), 100% at BLK (sheet T-418), 100% at MEK4 (sheet T-418) and 94% on JNK3 (sheet T-418).

As for `Cc1ncccc1Oc1sc(C(N)=O)c2c1-c1c(cnn1C)CC2` [T-474, 1-methyl-8-((2-methylpyridin-3-yl)oxy)-4,5-dihydro-1H-thieno[3,4-g]indazole-6-carboxamide], the remaining binding at 0.3 µM amounted to 100% on MERTK; 83% on AXL; 100% at LIMK1; 95% on TNNI3K; 99% on PIP5K1A; 98% at ALK. Further, the remaining binding at 0.3 µM came out at 100% on MYO3A; 95% on RIPK1; 100% at LYN; 88% on ERK8; 100% on CDK3; 100% on AMPK-alpha1. The remaining binding at 0.3 µM on RIOK2 turned out to be 87%; at GRK7, 100%; on MYO3B, 84%; on EGFR(S752-I759del) it was 100%; at AURKB, 100%; on MST2 it was 50%. The remaining binding at 0.3 µM at WNK3 was found to be 100%; on BLK, 100%; at MEK4 it was 100%; on JNK3, 97%.
